Measurements reported in patent US20140243196A1, “Carbamoylmethoxy- and Carbamoylmethylthio- and Carbamoylmethylamino Benzamides for Combating Invertebrate Pests” (BASF SE, priority 2011, published 2014).

Key:
Type in all cases: in vivo
[1] = system: Diamond Backmoth (Plutella xylostella); experiment: Diamond backmoth leaf-dip test on cabbage leaves; details: 3rd instar larvae on dipped cabbage leaves, 72 hours after treatment, read-out: mortality in comparison with untreated controls
Protocol: B.1 Diamond Backmoth (Plutella xylostella)
The active compound was dissolved at the desired concentration in a mixture of 1:1 (vol:vol) distilled water: acteon. Surfactant (Alkamuls® EL 620) was added at a rate of 0.1% (vol/vol). The test solution was prepared at the day of use.
Leaves of cabbage were dipped in test solution and air-dried. Treated leaves were placed in petri dishes lined with moist filter paper and inoculated with ten 3rd instar larvae. Mortality was recorded 72 hours after treatment. Feeding damages were also recorded using a scale of 0-100%.

[2] = system: Boll Weevil (Anthonomus grandis); experiment: Boll weevil microtiter plate insect diet test; details: 120 h, egg and larval mortality, 5 days, read-out: mortality in comparison with untreated controls
Protocol: B.3 Boll Weevil (Anthonomus grandis)
For evaluating control of boll weevil (Anthonomus grandis) the test unit consisted of 24-well-microtiter plates containing an insect diet and 20-30 A. grandis eggs.
The compounds were formulated using a solution containing 75% v/v water and 25% v/v DMSO. Different concentrations of formulated compounds were sprayed onto the insect diet at 20 μl, using a custom built micro atomizer, at two replications.
After application, microtiter plates were incubated at about 23±1° C. and about 50±5% relative humidity for 5 days. Egg and larval mortality was then visually assessed.

[3] = system: Green Peach Aphid (Myzus persicae); experiment: Green peach aphid spray test on bell pepper plants; details: 120 h, aphids on sprayed bell pepper plants, after 5 days, read-out: mortality in comparison with untreated controls
Excerpt: B.6 Green Peach Aphid (Myzus persicae)
(§1) The active compounds were formulated in cyclohexanone as a 10,000 ppm solution supplied in tubes. The tubes were inserted into an automated electrostatic sprayer equipped with an atomizing nozzle and they served as stock solutions for which lower dilutions were made in 50% acetone:50% water (v/v). A nonionic surfactant (Kinetic®) was included in the solution at a volume of 0.01% (v/v).
Bell pepper plants at the first true-leaf stage were infested prior to treatment by placing heavily infested leaves from the main colony on top of the treatment plants. Aphids were allowed to transfer overnight to accomplish an infestation of 30-50 aphids per plant and the host leaves were removed. The infested plants were then sprayed by an automated electrostatic plant sprayer equipped with an atomizing spray nozzle. The plants were dried in the sprayer fume hood, removed, and then maintained in a growth room under fluorescent lighting in a 24-hr photoperiod at about 25° C. and about 20-40% relative humidity. Aphid mortality on the treated plants, relative to mortality on untreated control plants, was determined after 5 days.

[4] = system: Tobacco Budworm (Heliothis virescens); experiment: Tobacco budworm microtiter plate insect diet test; details: 120 h, egg and larval mortality, 5 days, read-out: mortality in comparison with untreated controls
Protocol: B.4 Tobacco Budworm (Heliothis virescens) I
For evaluating control of tobacco budworm (Heliothis virescens) the test unit consisted of 96-well-microtiter plates containing an insect diet and 15-25 H. virescens eggs.
The compounds were formulated using a solution containing 75% v/v water and 25% v/v DMSO. Different concentrations of formulated compounds were sprayed onto the insect diet at 10 μl, using a custom built micro atomizer, at two replications.
After application, microtiter plates were incubated at about 28±1° C. and about 80±5% relative humidity for 5 days. Egg and larval mortality was then visually assessed.

[5] = system: Southern Armyworm (Spodoptera eridiana); experiment: Southern armyworm foliar spray test on lima bean plants; details: 96 h, larvae on sprayed lima bean plants, 4 days after treatment, read-out: mortality in comparison with untreated controls
Protocol: B.2 Southern Armyworm (Spodoptera eridiana)
as §1
Lima bean plants (variety Sieva) were grown 2 plants to a pot and selected for treatment at the 1st true leaf stage. Test solutions were sprayed onto the foliage by an automated electrostatic plant sprayer equipped with an atomizing spray nozzle. The plants were dried in the sprayer fume hood and then removed from the sprayer. Each pot was placed into perforated plastic bags with a zip closure. About 10 to 11 armyworm larvae were placed into the bag and the bags zipped closed. Test plants were maintained in a growth room at about 25° C. and about 20-40% relative humidity for 4 days, avoiding direct exposure to fluorescent light (24 hour photoperiod) to prevent trapping of heat inside the bags. Mortality and reduced feeding were assessed 4 days after treatment, compared to untreated control plants.

Cc1cc(Cl)cc(C(=O)NOCC(=O)N(C)C)c1NC(=O)c1ccc(C(F)(F)F)cc1-c1ncccc1Cl [compound 1-1, 5-chloro-2-[2-(3-chloro-pyridin-2-yl)-4-trifluoromethyl-benzoylamino]-N-dimethylcarbamoylmethoxy-3-methyl-benzamide]
mortality at 500 ppm [1]: ≥ 75%
mortality at 2500 ppm [2]: > 75%
mortality at 2500 ppm [3]: > 75%
mortality at 2500 ppm [4]: > 75%
mortality at 500 ppm [5]: ≥ 75%
